ED50, ED70 and IC50 data for 3 molecules are collected here from patent US4447434A, “Substituted dibenzodiazepinones” (Dr. Karl Thomae GmbH, priority 1982, dated 1984).

Like-named read-outs stand apart in the source and are kept apart here.

For data set [1], the system named is oxotremorine-induced lesions in the mucous membrane of the stomach. As to the kind of experiment: Oxotremorine test: antiulcerative effect (protection against lesions of the mucous membrane of the stomach). The class given is in vivo, rat (female albino, Crl:COBS-CD (SD) BR). To be noted: Rattus norvegicus, iv; for ED50: read-out: Oxotremorine Test, Antiulcerative effect ED50; for ED70: read-out: Oxotremorine Test, Antiulcerative effect ED70. Here is the method:
(§1) Oxotremorine, a specific agonist for muscarinic receptors, produces lesions in the mucous membrane of the stomach in rats and increases their secretion of saliva. This test method was chosen so that any selective activity of an antimuscarinic substance on the stomach could be identified.
(§2) 10 female albino rats (of the Crl:COBS-CD (SD) BR strain) with a body weight of from 120 to 150 g were used in each treatment group and were kept without food for 24 hours before the start of the test but given free access to drinking water.
(§3) In order to determine, in preliminary tests, the muscarinic effect of oxotremorine on each of the symptoms studied, a dosage/activity curve was drawn up with at least three dosages for each symptom.
(§4) When testing the antimuscarinic substances, the dosage of oxotremorine which triggered the symptom in question in 90 to 100% of the animals in the preliminary tests was used.
Lesions in mucous membrane of stomach: 0.62 mg/kg i.v.
(§5) Each antimuscarinic substance was administered intravenously in uniformly graduated doses 15 minutes before the oxotremorine was administered. Control groups were given corresponding quantities of the solvent and suspending agent instead of the test substance.
(§6) Immediately after the oxotremorine was administered, the animals were placed in a glass case for 15 minutes and observed.
(§7) The ED50 values were determined using the method described by LITCHFIELD and WILCOXON (J. Pharmacol. Exp. Ther. 96, 99, 1949).
The effects on lesions of the mucous membrane of the stomach were evaluated as follows:
The lesions of the gastric mucous membrane were produced by intravenous injection of 0.62 mg/kg of oxotremorine 30 minutes after the oral administration of 1 mg/kg of neostigmine (a cholinesterase inhibitor). 60 minutes after the administration of the neostigmine, the animals were killed, the stomachs were removed and opened and examined for the presence of any lesions in the mucous membrane. The protective effect of the test substances was expressed as the percentage inhibition (percentage of animals without lesions). The ED50 and ED70 values were determined using the method of LITCHFIELD and WILCOXON (see above).

The target of data set [2] is muscarinic receptors (cerebral cortex). In words: Binding to muscarinic receptors, cerebral cortex (displacement of 3H-N-methylscopolamine). The note with it: cerebral cortex homogenate 1:3000; 0.3 n molar 3H-NMS; 30° C, 45 min, pH 7.4; read-out: Receptor binding tests IC50, Cortex. Also noted: species or system rat (male Sprague-Dawley). Here is the method:
(§8) 2. Studies of binding to muscarinic receptors: Determination of the IC50 value
(§9) The organ donors were male Sprague-Dawley rats with a body weight of from 180 to 220 g. After the heart, stomach and cerebral cortex had been removed, the remainder of the operation was carried out in ice-cold Hepes-HCl buffer (pH 7.4; 100 m molar NaCl, 10 m molar MgCl2). The smooth muscle of the fundus of the stomach was separated from the mucous membrane of the stomach and subjected to preliminary homogenization. The whole heart was cut up with scissors. All the organs were then homogenized in a Potter apparatus.
(§10) For the binding test, the homogenized organs were diluted as follows:
(§11) The homogenized organ preparations were incubated at a specific concentration of the radiolabelled compound and with a series of concentrations of the nonradioactive test substances in an Eppendorf centrifuge tube at 30° C. The duration of incubation was 45 minutes. 0.3 n molar ^3 H-N-methylscopolamine (^3 H-NMS) was used as the radiolabelled compound. After incubation had been brought to an end by centrifuging at 14000 g, the radioactivity in the pellet was determined. It represents the sum of the specific and nonspecific binding of ^3 H-NMS. The proportion of nonspecific binding was defined as the radioactivity which was bound in the presence of 1μ molar quinuclidinylbenzylate. Four measurements were taken in each case. The IC50 values of the non-labelled test substances were determined graphically. They represent the concentration of test substance at which the specific binding of ^3 H-NMS to the muscarinic receptors in the various organs was inhibited by 50%.

Data set [3] has as its target T1, muscarinic receptors (heart) (Rattus norvegicus, UniProt P10980).
T1 construct: The whole heart was cut up with scissors; from tissue; host or cells: whole heart of male Sprague-Dawley rats, homogenate
T1 sequence (P10980 1-466): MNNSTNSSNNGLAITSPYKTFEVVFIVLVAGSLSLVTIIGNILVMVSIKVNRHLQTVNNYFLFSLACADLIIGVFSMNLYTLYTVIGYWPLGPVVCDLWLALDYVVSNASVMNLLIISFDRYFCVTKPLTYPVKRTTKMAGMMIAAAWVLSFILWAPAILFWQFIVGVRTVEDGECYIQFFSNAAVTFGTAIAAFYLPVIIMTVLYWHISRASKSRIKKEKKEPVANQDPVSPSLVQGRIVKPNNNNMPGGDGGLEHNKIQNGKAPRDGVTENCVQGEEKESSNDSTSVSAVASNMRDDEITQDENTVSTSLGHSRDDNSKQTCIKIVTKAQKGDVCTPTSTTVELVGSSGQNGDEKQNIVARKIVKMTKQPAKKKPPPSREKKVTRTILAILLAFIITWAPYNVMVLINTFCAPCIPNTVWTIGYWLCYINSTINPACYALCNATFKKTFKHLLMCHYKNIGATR
In words: Binding to muscarinic receptors, whole heart (displacement of 3H-N-methylscopolamine). More on the design: species or system rat (male Sprague-Dawley). Here is the method:
as §8, §9, §10, §11

Data set [4] can be described thus: Mydriasis (effect on the pupil size). To be noted: rat, in vivo, iv; pupil size observed for 10 minutes; double blind. Here is the method: The effect of the test substances on the pupil size in rats was investigated as follows:
The substances were administered intravenously to groups of 10 animals in at least three uniformly graduated doses. […] The percentage of test animals in which mydriasis occurred was determined. The ED50 values were again determined using the method of LITCHFIELD and WILCOXON (see above).

The target in data set [5] is muscarinic receptors (smooth muscle fundus of stomach). In words: Binding to muscarinic receptors, smooth muscle of the fundus of the stomach (displacement of 3H-N-methylscopolamine). More on the design: species or system rat (male Sprague-Dawley). To be noted: smooth muscle of fundus homogenate 1:100; 0.3 n molar 3H-NMS; 30° C, 45 min, pH 7.4; read-out: Receptor binding tests IC50, Smooth muscle fundus of stomach. Here is the method: as §8, §9, §10
Smooth muscle of the fundus of the stomach: 1:100
as §11

In data set [6] the test system is oxotremorine-induced secretion of saliva. In words: Oxotremorine test: inhibition of salivation. The class given is in vivo, rat (female albino, Crl:COBS-CD (SD) BR). The note with it: Rattus norvegicus, iv, 0.25 h, read-out: Oxotremorine Test, Inhibition of salivation ED50. Here is the method:
as §1, §2, §3, §4
Secretion of saliva: 0.083 mg/kg i.v.
as §5, §6, §7

The mark [7] stands for this setting: 15 min before oxotremorine 0.62 mg/kg i.v., neostigmine 1 mg/kg oral.
The mark [8] stands for this setting: i.v., 15 min before oxotremorine 0.083 mg/kg i.v., double blind.

As to `CN1CC=C(C(=O)N2c3ccccc3NC(=O)c3ccccc32)CC1` [Substance A, 5,10-dihydro-5-[(1-methyl-1,2,5,6-tetrahydro-4-pyridinyl)-carbonyl]-11H-dibenzo[b,e][1,4]diazepin-11-one], the median effective dose (ED50) came out at 0.0031 mg/kg in data set [1] (setting [7]) and 0.08 mg/kg in data set [6] (setting [8]). Also, in data set [1] (setting [7]), the ED70 came out at 0.0065 mg/kg. Besides, the IC50 is 0.03 µM in data set [2], 0.25 µM in data set [3] and 0.1 µM in data set [5]. The molecule further registered an ED50 at 10 min in data set [4] of 0.0366 mg/kg.
As for `CN1CCC(CC(=O)N2c3ccccc3C(=O)Nc3cccc(Cl)c32)CC1` [Substance B, 6-chloro-5,10-dihydro-5-[(1-methyl-4-piperidinyl)acetyl]-11H-dibenzo[b,e][1,4]diazepin-11-one], the ED50 in data set [1] (setting [7]) was found to be 0.0044 mg/kg; in data set [6] (setting [8]) it was 0.23 mg/kg. The ED70 in data set [1] (setting [7]) worked out at 0.0084 mg/kg. Moreover, the values for the IC50 in data set [2], in data set [3] and in data set [5] were 0.028 µM, 0.2 µM and 0.17 µM, respectively. The ED50 at 10 min in data set [4] is 0.138 mg/kg.
Turning to `CN1[C@@H]2CC[C@H]1C[C@@H](CC(=O)N1c3ccccc3NC(=O)c3ccccc31)C2` [Substance C, endo-5,10-dihydro-5-[(8-methyl-8-azabicyclo[3,2,1]-oct-3-yl)acetyl]-11H-dibenzo[b,e][1,4]diazepin-11-one], the ED50 in data set [1] was determined as 0.0011 mg/kg; in data set [6], 0.105 mg/kg. The ED70 in data set [1] was 0.0038 mg/kg. The IC50 in data set [2] came to 0.015 µM; in data set [3] (whole heart homogenate 1:250, 0.3 n molar 3H-NMS, 30° C, 45 min, pH 7.4, read-out: Receptor binding tests IC50, Heart) it was 0.055 µM; in data set [5] it was 0.2 µM. For the same molecule, in data set [4], the 50% effect level (ED50 at 10 min) was put at a dose of 0.054 mg/kg.
